Data published in patent US5646121A, “Pseudopeptides with antiviral activity” (Bayer Aktiengesellschaft, priority 1993, dated 1997).
pIC50: −log10 of the molar value. Where two headings read alike, the source gives them in different places.

What was measured:
HCMV (Davis) = assay: Anti-HCMV screening test: inhibition of the cytopathogenic effect in HELF cell cultures; type: cell-based, human cytomegalovirus; conditions: for pIC50: HCMV (Davis)-infected HELF cells, 6 days, concentration causing 50% inhibition of the CPE; for SI: selectivity index, defined by footnote 3 (drawing 26), HELF CIC50 versus HCMV IC50
Procedure: (§1) The anti-HCMV effect was determined in a screening test system in 96-well microtitre plates, making use of human embryonic lung fibroblasts (HELF) cell cultures. The influence of the substances on the spread of the cytopathogenic effect was compared with that of the reference substance ganciclovir (Cymevene® sodium), a clinically approved anti-HCMV chemotherapeutic agent.
(§2) The substances dissolved in DMSO (dimethyl sulphoxide) (at 50 mM concentration) are investigated on microtitre plates (96-well) at final concentrations of 1,000-0.00048 μM (micromolar) in double determinations (4 substances/plate). The conditions are such that both toxic and cytostatic effects of the substances are recorded. Once the appropriate substance dilutions (1:2) have been made on the microtitre plate, a suspension of 50-100 HCMV-infected HELF cells and 3×10^4 non-infected HELF cells in Eagle's MEM (minimal essential medium) containing 10% foetal calf serum is added to each well and the plates are then incubated at 37° C. in a CO2 incubator for a period of 6 days. […] After staining with neutral red and fixing with formalin/methanol, the plates are evaluated with the aid of a projection microscope (plaque viewer).

[1] = tested on: human embryonic lung fibroblasts (HELF); assay: Anti-cellular effect on HELF cells in the anti-HCMV screening test
Procedure: as §1, §2

Structure (SMILES) | pIC50 (HCMV (Davis)) | SI (HCMV (Davis)) | CIC50 (HELF) [1] [µM] | pIC50 (HCMV (Davis); Human betaherpesvirus 5, 144 h) | CIC50 (HELF) ([1]; HELF cells, 6 days incubation, highest concentration which does not show any obvious anticellular effect) [µM]
Cc1ccc(S(=O)(=O)NC(=N)NCCC[C@H](NC(=O)OCc2ccccc2)C(=O)N[C@H](C(=O)NC(C=O)Cc2ccccc2)C(C)(C)C)cc1 (stereo partly drawn) [Example 50, (2R,S)-2-[Nα-(Benzyloxycarbonyl)-N^G -(4-methyl-phenylsulphonyl)-S-arginyl-S-(tert-butyl)glycinyl]amino-3-phenyl-propan-1-al] | 8.40 | 700 | 2.8 |  | 
Nc1nc(O)c2ncn(COC(CO)CO)c2n1 [Cymevene.Na, ganciclovir] |  | 32-64 |  | 5.40 to 5.70 | 125
